# Assay results reported in PMC3610893, “The CouPSTU and TarPQM Transporters in Rhodopseudomonas palustris: Redundant, Promiscuous Uptake Systems for Lignin-Derived Aromatic Substrates” (PLoS ONE, 2013).
# Where “and” joins values, the source holds several entries; their conditions need not be identical. Equal values may be shown once.
# Experiments:
# [1] = molecular target: T1, CouP (RPA1789) periplasmic binding-protein (Rhodopseudomonas palustris, UniProt Q6N8W4); assay: Intrinsic tryptophan fluorescence spectroscopy / ligand titrations with CouP (RPA1789); details: for Quench of intrinsic tryptophan fluorescence of CouP (RPA1789): 0.2 µM ligand added to 0.2 µM protein (equimolar), excitation 280 nm; for K d with CouP that was not urea treated, relative to refolded protein: fluorescence titrations, CouP not urea treated (endogenous ligand not removed), fold higher
# T1 sequence (Q6N8W4 27-385): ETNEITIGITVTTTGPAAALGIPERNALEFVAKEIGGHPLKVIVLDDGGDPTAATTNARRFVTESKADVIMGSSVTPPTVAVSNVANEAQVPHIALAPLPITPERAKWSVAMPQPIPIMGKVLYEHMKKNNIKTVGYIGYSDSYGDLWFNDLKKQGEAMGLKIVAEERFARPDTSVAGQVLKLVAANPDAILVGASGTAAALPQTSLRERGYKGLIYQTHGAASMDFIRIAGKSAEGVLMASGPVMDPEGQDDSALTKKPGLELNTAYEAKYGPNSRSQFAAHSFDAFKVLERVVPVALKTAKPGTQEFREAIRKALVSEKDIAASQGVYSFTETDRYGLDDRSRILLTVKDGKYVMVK
# Procedure: (§1) Pure protein was unfolded by dialysis against 1 L of 6 M urea for 16 hours at 4°C. Refolding was effected by dialysis against 2 L of refolding buffer (50 mM Tris-HCl pH 7.2 plus 100 mM NaCl) for 8 hours, the buffer being changed every 2 hours with a final overnight dialysis. Once removed from the dialysis tubing, protein was centrifuged (13,000×g, 10 mins, 4°C) to remove any precipitated misfolded protein.
# (§2) Changes in the UV fluorescence of intrinsic tryptophan residues in RPA1782 and RPA1789 were measured using a Cary Eclipse fluorimeter (Varian Ltd, UK) in 10 mM Tris-HCl buffer pH 7.4 at 30°C in a 3 ml volume. Excitation of samples was at 280 nm (5 nm slit width) and emission was recorded at 300–400 nm (20 nm slit width). Ligand titrations were performed with 0.2 µM protein with λex 280 nm λem 340 nm using 5 nm excitation and 20 nm emission slit widths respectively. Except where indicated, data from three independent titrations was used to calculate K d values, by fitting to the quadratic equation for tight binding as previously described.
# [2] = molecular target: T2, TarP (RPA1782) periplasmic binding-protein (Rhodopseudomonas palustris, UniProt Q6N8X0); assay: Intrinsic tryptophan fluorescence spectroscopy / ligand titrations with TarP (RPA1782); details: for Quench of intrinsic tryptophan fluorescence of TarP (RPA1782): equimolar protein and ligand (0.2 µM), excitation 280 nm
# T2 sequence (Q6N8X0 20-336): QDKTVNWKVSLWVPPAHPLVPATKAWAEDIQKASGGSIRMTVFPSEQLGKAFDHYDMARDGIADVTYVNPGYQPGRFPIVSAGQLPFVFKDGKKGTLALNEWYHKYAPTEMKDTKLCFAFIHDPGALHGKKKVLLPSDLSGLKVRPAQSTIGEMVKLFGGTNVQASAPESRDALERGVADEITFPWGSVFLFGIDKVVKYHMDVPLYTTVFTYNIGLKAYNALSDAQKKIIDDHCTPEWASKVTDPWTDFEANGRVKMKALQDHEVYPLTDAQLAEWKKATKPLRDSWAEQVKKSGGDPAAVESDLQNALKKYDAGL
# Procedure: as §1, §2
# CouP (RPA1789) = molecular target: T3, CouP (RPA1789) (Rhodopseudomonas palustris, UniProt Q6N8W4); assay: Isothermal titration calorimetry (ITC) with RPA1789; format: binding
# T3 sequence (Q6N8W4 27-385): T1 sequence (Q6N8W4 27-385)
# Procedure: ITC experiments were carried out using a VP-ITC calorimeter (Microcal, Inc., UK). Ligand stock solutions for ITC experiments were made up in aliquots of the final refolding buffer that RPA1789 was dialysed against (50 mM Tris-HCl pH 7.2 plus 100 mM NaCl) and all reactions used the same buffer. The reaction cell contained 1.8 ml of 50 µM protein in refolding buffer. Ligand titrations were carried out at 20°C (except caffeate which was carried out at 25°C) by the injection of 20×15 µl aliquots of 400 µM ligand, from a 300 µl syringe, for a duration of 35 seconds at 7 minute intervals. After taking into account the baseline and any heats of dilution by the ligand, all titrations were integrated using the ORIGIN software programme associated with the calorimeter then exported to in-house numerical routines for data fitting to the Weissman isotherm.
# [3] = molecular target: T1, CouP (RPA1789) periplasmic binding-protein; assay: Intrinsic tryptophan fluorescence spectroscopy / ligand titrations with CouP (RPA1789); details: CouP not urea treated (endogenous ligand not removed)
# RPA1789 = molecular target: RPA1789; parameters: method as in PMID 22577139; details: read-out: K d for RPA1789 by ITC (literature); cited from earlier work
# [4] = ITC, 20°C, 50 µM protein, 50 mM Tris-HCl pH 7.2 plus 100 mM NaCl
Kd (CouP (RPA1789)) [µM],"n (ligand binding stoichiometry) (CouP (RPA1789); ITC, 25°C)","ΔH (binding enthalpy) (CouP (RPA1789); ITC, 25°C) [kJ/mol]","ΔHdil (heats of dilution of the ligands) (CouP (RPA1789); ITC, 25°C) [kJ/mol]","ΔS (binding entropy) (CouP (RPA1789); ITC, 25°C) [cal mol^−1 K^−1]",Structure (SMILES),Quench of intrinsic tryptophan fluorescence of CouP (RPA1789) [1],Kd [1] [µM],Kd [2],Quench of intrinsic tryptophan fluorescence of TarP (RPA1782) [2] [%],"n (ligand binding stoichiometry) (CouP (RPA1789); ITC, 20°C)","ΔHdil (heats of dilution of the ligands) (CouP (RPA1789); ITC, 20°C) [kJ/mol]","ΔS (binding entropy) (CouP (RPA1789); ITC, 20°C) [cal mol^−1 K^−1]",ΔH (binding enthalpy) (CouP (RPA1789); [4]),"ΔHbind (less favourable enthalpy of binding) (CouP (RPA1789); ITC, CouP, compared with ligands bearing the 4-OH group) [kJ/mol]",Binding to CouP that was not urea treated [3],"K d with CouP that was not urea treated, relative to refolded protein [1]",Binding to CouP (RPA1789) ([1]; fluorescence),"Binding to TarP (RPA1782), fluorescence screen ([2]; equimolar protein and ligand)",Kd (RPA1789) [µM]
–,–,–,–,–,"COc1cc(C=CC(=O)O)cc(OC)c1O [sinapate, 3-(4-hydroxy-3,5-dimethoxyphenyl)-2-propenoic acid]",~5%,–,–,–,–,–,–,–,–,–,–,–,–,–
–,–,–,–,–,"O=C(O)/C=C/c1ccccc1 [Cinnamate, (E)-3-phenyl-2-propenoic acid]",25–50%,0.088 ± 0.008,0.05 µM and 0.033 µM,~5,0.757±0.003,-1.8,56,31.2 ± 0.33 kJ/mol,> 17,no evidence for cinnamate binding,–,–,–,–
0.027 ± 7e-05,0.776±0.005,7.45 ± 0.21,-1.17,40,"O=C(O)/C=C/c1ccc(O)c(O)c1 [Caffeate, (E)-3-(3,4-dihydroxyphenyl)-2-propenoic acid]",25–50%,0.0024 ± 0.0008,0.014 ± 0.007 µM,~5,–,–,–,negligible enthalpy of binding,–,–,"200-1,000 fold",–,–,–
–,–,–,–,–,O=C(O)c1ccc(O)cc1 [4-hydroxybenzoate],did not produce any fluorescence change,–,–,–,–,–,–,–,–,–,–,no evidence of binding,no evidence of binding,–
–,–,–,–,–,"COc1cc(/C=C/C(=O)O)ccc1O [Ferulate, (E)-3-(4-hydroxy-3-methoxyphenyl)-2-propenoic acid]",25–50%,0.015 ± 0.006,0.015 ± 0.003 µM,~5,0.803±0.002,-1,43,13.3 ± 0.13 kJ/mol,–,–,"200-1,000 fold",–,–,–
–,–,–,–,–,"O=C(O)/C=C/c1ccc(O)cc1 [Coumarate, (E)-3-(4-hydroxyphenyl)-2-propenoic acid]",~30% and 25–50%,0.0026 ± 9e-05,0.008 ± 0.005 µM,~5,0.993±0.003,-1.09,46,13.5 ± 0.13 kJ/mol,–,–,"200-1,000 fold",–,–,8.6
